Our source for the Activity and IC50 values is ChEMBL document CHEMBL6109101, “Synthesis and bioactivity of cyclic peptide GG-8-6 analogues as anti-hepatocellular carcinoma agents” (Eur J Med Chem, 2025).

Series [1] is described as follows: Toxicity in nude mouse implanted with human MHCC97H cells assessed as body weight at 5 mg/kg, po administered daily for 3 weeks and measured immediately (reference value: 25.05 g). Format: organism-based. The note with it: in vivo, 504 h.
Series [2] is described as follows: Toxicity in nude mouse implanted with human MHCC97H cells assessed as body weight at 5 mg/kg, po administered daily for 3 weeks and measured at day 22 (reference value: 26.38 g). The class given is organism-based. The note with it: in vivo, 1032 h, time 43 day.
The subject of the next series is HCCLM3. The experiment in a line: Cytotoxicity against human HCCLM3 cells assessed as inhibition of cell proliferation incubated for 48 hrs by MTT assay. Format: functional, cell-based. The note with it: HCCLM3, 48 h.
A short description of series [3]: Toxicity in nude mouse implanted with human MHCC97H cells assessed as lung damage at 5 to 10 mg/kg, po administered daily for 3 weeks by H and E staining based analysis. Format: organism-based. Particulars: in vivo, 504 h, dose 5-10 mg/kg.
Series [4] can be described thus: Toxicity in nude mouse implanted with human MHCC97H cells assessed as spleen damage at 5 to 10 mg/kg, po administered daily for 3 weeks by H and E staining based analysis. Particulars: in vivo, 504 h, dose 5-10 mg/kg. Format: organism-based.
Series [5] can be described thus: Toxicity in nude mouse implanted with human MHCC97H cells assessed as kidney damage at 5 to 10 mg/kg, po administered daily for 3 weeks by H and E staining based analysis. The class given is organism-based. Particulars: in vivo, 504 h, dose 5-10 mg/kg.
A short description of series [6]: Toxicity in nude mouse implanted with human MHCC97H cells assessed as heart damage at 5 to 10 mg/kg, po administered daily for 3 weeks by H and E staining based analysis. The class given is organism-based. The note with it: in vivo, 504 h, dose 5-10 mg/kg.
Series [7] in a line: Toxicity in nude mouse implanted with human MHCC97H cells assessed as body weight at 10 mg/kg, po administered daily for 3 weeks and measured immediately (reference value: 25.05 g). Format: organism-based. Particulars: in vivo, 504 h.
The nature of series [8]: Toxicity in nude mouse implanted with human MHCC97H cells assessed as liver damage at 5 to 10 mg/kg, po administered daily for 3 weeks by H and E staining based analysis. Format: organism-based. Particulars: in vivo, 504 h, dose 5-10 mg/kg.
Series [9] is described as follows: Toxicity in nude mouse implanted with human MHCC97H cells assessed as body weight at 10 mg/kg, po administered daily for 3 weeks and measured at day 22 (reference value: 26.38 g). The class given is organism-based. The note with it: in vivo, 1032 h, time 43 day.
A further series has as its system HepG2. The experiment in a line: Cytotoxicity against human HepG2 cells assessed as inhibition of cell proliferation incubated for 48 hrs by MTT assay. The note with it: HepG2, 48 h. Format: functional, cell-based.
A further series has as its system Huh-7. The experiment in a line: Cytotoxicity against human Huh-7 cells assessed as inhibition of cell proliferation incubated for 48 hrs by MTT assay. The class given is functional, cell-based. Particulars: Huh-7, 48 h.
For the next series, the system named is MHCC97H. The series can be described thus: Cytotoxicity against human MHCC97H cells assessed as inhibition of cell proliferation incubated for 48 hrs by MTT assay. The class given is functional, cell-based.

With `CC[C@H](C)[C@@H]1NC(=O)[C@@H]2CCCN2C(=O)[C@H](CC(C)C)NC(=O)[C@H](COC(C)(C)C)NC(=O)[C@H](CC(C)C)NC(=O)[C@H](C(C)C)NC(=O)[C@H](CC(C)C)NC(=O)[C@H](CC(C)C)NC(=O)[C@H](CC(C)C)NC1=O`, the Activity is listed as 25.98 g in series [1]; 26.7 g in series [2]; “Non-toxic” in [3]; “Non-toxic” in [4]; “Non-toxic” in series [5]; “Non-toxic” in series [6]. For the same molecule, the Activity was 25.6 g in series [7], “Non-toxic” in series [8] and 26.43 g in series [9]. The 50% inhibitory concentration (IC50) with HCCLM3 turned out to be 4.6 µM; in the series on HepG2, 3.29 µM; in the series on Huh-7, 3.29 µM; with MHCC97H it was 4.1 µM.
